Measurements as given in ChEMBL document CHEMBL5500384, “New synergistic benzoquinone scaffolds as inhibitors of mycobacterial cytochrome bc1 complex to treat multi-drug resistant tuberculosis” (Eur J Med Chem, 2024).

How the values were obtained:
[1] = tested on: Mycobacterium tuberculosis; test: Antitubercular activity against Mycobacterium tuberculosis H37Rv incubated for 5 days by microtiter plate method; format: functional; conditions: 120 h, time 5 day
[2] = Renal toxicity in Albino mouse assessed as change in tubular capillaries at 50 to 2000 mg/kg, po measured after 14 days; format: organism-based; conditions: in vivo, 336 h, dose 50-2000 mg/kg, time 14 day
[3] = Acute toxicity in Albino mouse assessed as change in RBC count measured per million cells at 50 to 2000 mg/kg, po measured after 14 days (reference value: 9.15 microL); format: organism-based, Erythrocyte; conditions: in vivo, 336 h, dose 50-2000 mg/kg, time 14 day
[4] = Hepatotoxicity in Albino mouse assessed as change in central vein at 50 to 2000 mg/kg, po measured after 14 days; format: toxicity, organism-based; conditions: in vivo, 336 h, dose 50-2000 mg/kg, time 14 day
[5] = Acute toxicity in Albino mouse assessed as change in neutrophils at 50 to 2000 mg/kg, po measured after 14 days (reference value: 75%); format: organism-based; conditions: in vivo, 336 h, dose 50-2000 mg/kg, time 14 day
[6] = Acute toxicity in Albino mouse assessed as change in ESR at 50 to 2000 mg/kg, po measured after 14 days (reference value: 10 millimeter); format: organism-based; conditions: in vivo, 336 h, dose 50-2000 mg/kg, time 14 day
[7] = Cytotoxicity against african green monkey Vero cells assessed as cell viability at 50 ug/ml by MTT assay; format: toxicity, cell-based; conditions: chlorocebus sabaeus, at 50 µg/mL, read-out: Activity
[8] = Acute toxicity in Albino mouse assessed as change in serum urea level at 50 to 2000 mg/kg, po measured after 14 days (reference value: 46 mg/dl); format: organism-based; conditions: in vivo, 336 h, dose 50-2000 mg/kg, time 14 day
[9] = Acute toxicity in Albino mouse assessed as change in SGPT count at 50 to 2000 mg/kg, po measured after 14 days (reference value: 52 IU/L); format: organism-based; conditions: in vivo, 336 h, dose 50-2000 mg/kg, time 14 day
[10] = Renal toxicity in Albino mouse assessed as change in renal tubules at 50 to 2000 mg/kg, po measured after 14 days; format: organism-based; conditions: in vivo, 336 h, dose 50-2000 mg/kg, time 14 day
[11] = Acute toxicity in Albino mouse assessed as mortality at 300 mg/kg, po after 5 to 8 hrs; format: organism-based; conditions: in vivo, time 5-8 hrs
[12] = Acute toxicity in Albino mouse assessed as change in ALP level at 50 to 2000 mg/kg, po measured after 14 days (reference value: 28 IU/L); format: organism-based; conditions: in vivo, 336 h, dose 50-2000 mg/kg, time 14 day
[13] = Renal toxicity in Albino mouse assessed as change in Bowman's capsule at 50 to 2000 mg/kg, po measured after 14 days; format: organism-based; conditions: in vivo, 336 h, dose 50-2000 mg/kg, time 14 day
[14] = Acute toxicity in Albino mouse assessed as change in LDH level at 50 to 2000 mg/kg, po measured after 14 days (reference value: 1052 IU/L); format: organism-based; conditions: in vivo, 336 h, dose 50-2000 mg/kg, time 14 day
[15] = Pulmonary toxicity in Albino mouse assessed as change in alveoli structure at 50 to 2000 mg/kg, po measured after 14 days; format: organism-based; conditions: in vivo, 336 h, dose 50-2000 mg/kg, time 14 day
[16] = Acute toxicity in Albino mouse assessed as change in eosinophils at 50 to 2000 mg/kg, po measured after 14 days (reference value: 3%); format: organism-based; conditions: in vivo, 336 h, dose 50-2000 mg/kg, time 14 day
[17] = Pulmonary toxicity in Albino mouse assessed as appearance of cilia at 50 to 2000 mg/kg, po measured after 14 days; format: organism-based; conditions: in vivo, 336 h, dose 50-2000 mg/kg, time 14 day
[18] = Renal toxicity in Albino mouse assessed as structural absorbability abnormalities at 50 to 2000 mg/kg, po measured after 14 days; format: organism-based; conditions: in vivo, 336 h, dose 50-2000 mg/kg, time 14 day
[19] = Pulmonary toxicity in Albino mouse assessed as change in squamous pneumocytes at 50 to 2000 mg/kg, po measured after 14 days; format: organism-based; conditions: in vivo, 336 h, dose 50-2000 mg/kg, time 14 day
[20] = Acute toxicity in Albino mouse assessed as change in SGOT count at 50 to 2000 mg/kg, po measured after 14 days (reference value: 42 IU/L); format: organism-based; conditions: in vivo, 336 h, dose 50-2000 mg/kg, time 14 day
[21] = Acute toxicity in Albino mouse assessed as change in lymphocytes at 50 to 2000 mg/kg, po measured after 14 days (reference value: 21%); format: organism-based; conditions: in vivo, 336 h, dose 50-2000 mg/kg, time 14 day
[22] = Cytotoxicity against african green monkey Vero cells assessed as cell viability at 100 ug/ml by MTT assay; format: toxicity, cell-based; conditions: chlorocebus sabaeus, at 100 µg/mL, read-out: Activity
[23] = Cytotoxicity against african green monkey Vero cells assessed as cell viability at 25 ug/ml by MTT assay; format: toxicity, cell-based; conditions: chlorocebus sabaeus, at 25 µg/mL, read-out: Activity
[24] = Hepatotoxicity in Albino mouse assessed as change in bile duct at 50 to 2000 mg/kg, po measured after 14 days; format: toxicity, organism-based, Liver; conditions: in vivo, 336 h, dose 50-2000 mg/kg, time 14 day
[25] = Cytotoxicity against african green monkey Vero cells assessed as cell viability at 3.125 ug/ml by MTT assay; format: toxicity, cell-based; conditions: chlorocebus sabaeus, at 3.125 µg/mL, read-out: Activity
[26] = Acute toxicity in Albino mouse assessed as change in hemoglobin level at 50 to 2000 mg/kg, po measured after 14 days (reference value: 12.8 g/dl); format: organism-based; conditions: in vivo, 336 h, dose 50-2000 mg/kg, time 14 day
[27] = Renal toxicity in Albino mouse assessed as extravasation of RBC at 50 to 2000 mg/kg, po measured after 14 days; format: organism-based, Erythrocyte; conditions: in vivo, 336 h, dose 50-2000 mg/kg, time 14 day
[28] = Acute toxicity in Albino mouse assessed as change in total leucocyte count at 50 to 2000 mg/kg, po measured after 14 days (reference value: 7400 mm3); format: organism-based; conditions: in vivo, 336 h, dose 50-2000 mg/kg, time 14 day
[29] = Acute toxicity in po dosed Albino mouse assessed as mortality after 14 days; format: organism-based; conditions: in vivo, time 14 day
[30] = Acute toxicity in Albino mouse assessed as mortality at 2000 mg/kg, po after 2 to 4 hrs; format: organism-based; conditions: in vivo, time 2-4 hrs
[31] = Acute toxicity in Albino mouse assessed as change in monocytes at 50 to 2000 mg/kg, po measured after 14 days (reference value: 1%); format: organism-based; conditions: in vivo, 336 h, dose 50-2000 mg/kg, time 14 day
[32] = Hepatotoxicity in Albino mouse assessed as change in portal vein at 50 to 2000 mg/kg, po measured after 14 days; format: toxicity, organism-based; conditions: in vivo, 336 h, dose 50-2000 mg/kg, time 14 day
[33] = Pulmonary toxicity in Albino mouse assessed as change in alveolar sacs at 50 to 2000 mg/kg, po measured after 14 days; format: organism-based; conditions: in vivo, 336 h, dose 50-2000 mg/kg, time 14 day
[34] = Pulmonary toxicity in Albino mouse assessed as appearance of goblet cells at 50 to 2000 mg/kg, po measured after 14 days; format: organism-based; conditions: in vivo, 336 h, dose 50-2000 mg/kg, time 14 day
[35] = Hepatotoxicity in Albino mouse assessed as change in hepatic artery at 50 to 2000 mg/kg, po measured after 14 days; format: toxicity, organism-based, Liver; conditions: in vivo, 336 h, dose 50-2000 mg/kg, time 14 day
[36] = Pulmonary toxicity in Albino mouse assessed as change in bronchi structure at 50 to 2000 mg/kg, po measured after 14 days; format: organism-based; conditions: in vivo, 336 h, dose 50-2000 mg/kg, time 14 day
[37] = Renal toxicity in Albino mouse assessed as change in proximal convoluted tubules at 50 to 2000 mg/kg, po measured after 14 days; format: organism-based; conditions: in vivo, 336 h, dose 50-2000 mg/kg, time 14 day
[38] = Cytotoxicity against african green monkey Vero cells assessed as cell viability at 12.5 ug/ml by MTT assay; format: toxicity, cell-based; conditions: chlorocebus sabaeus, at 12.5 µg/mL, read-out: Activity
[39] = Acute toxicity in Albino mouse assessed as change in serum creatine level at 50 to 2000 mg/kg, po measured after 14 days (reference value: 0.9 mg/dl); format: organism-based; conditions: in vivo, 336 h, dose 50-2000 mg/kg, time 14 day
[40] = Cytotoxicity against african green monkey Vero cells assessed as cell viability at 6.25 ug/ml by MTT assay; format: toxicity, cell-based; conditions: chlorocebus sabaeus, at 6.25 µg/mL, read-out: Activity
[41] = Hepatotoxicity in Albino mouse assessed as change in portal tracks at 50 to 2000 mg/kg, po measured after 14 days; format: toxicity, organism-based; conditions: in vivo, 336 h, dose 50-2000 mg/kg, time 14 day
[42] = Renal toxicity in Albino mouse assessed as change in renal corpuscles at 50 to 2000 mg/kg, po measured after 14 days; format: organism-based; conditions: in vivo, 336 h, dose 50-2000 mg/kg, time 14 day
[43] = Renal toxicity in Albino mouse assessed as change in distal convoluted tubules at 50 to 2000 mg/kg, po measured after 14 days; format: organism-based; conditions: in vivo, 336 h, dose 50-2000 mg/kg, time 14 day
[44] = Hepatotoxicity in Albino mouse assessed as change in hepatocytes at 50 to 2000 mg/kg, po measured after 14 days; format: toxicity, organism-based; conditions: in vivo, 336 h, dose 50-2000 mg/kg, time 14 day
[45] = Acute toxicity in Albino mouse assessed as mortality at 50 mg/kg, po after 14 days; format: organism-based; conditions: in vivo, 336 h, time 14 day

## O=C1C(Cl)=C(/N=C/c2ccccc2O)C(=O)c2ccccc21
[1]
  MIC: 12.5 µg/mL

## NNC(=O)c1ccncc1 [ISONIAZID]
[1]
  MIC: 1.82 µM

## CO[C@H]1/C=C/O[C@@]2(C)Oc3c(C)c(O)c4c(O)c(c(/C=N/N5CCN(C)CC5)c(O)c4c3C2=O)NC(=O)/C(C)=C\C=C\[C@H](C)[C@H](O)[C@@H](C)[C@@H](O)[C@@H](C)[C@H](OC(C)=O)[C@@H]1C [RIFAMPIN]
[1]
  MIC: 0.3 µM

## O=C1C(Cl)=C(N2C(=O)C(Cl)C2c2ccccc2)C(=O)c2ccccc21 (centres undefined)
[1]
  MIC: 6.25 µg/mL

## NC1=C(Cl)C(=O)c2ccccc2C1=O
[2]
  Activity: Non-Toxic
[3]
  Activity: 4.53 10^6 cells/µL
[4]
  Activity: Non-Toxic
[5]
  Activity: 58%
[6]
  Activity: 16 millimeter/hr
[7]
  viability at 50 ug/ml: 9.3%
[8]
  Activity: 68 mg/dL
[9]
  Activity: 26 IU/L
[10]
  Activity: Non-Toxic
[11]
  Activity: Toxic
[12]
  Activity: 40 IU/L
[13]
  Activity: Non-Toxic
[14]
  Activity: 1519 IU/L
[15]
  Activity: Non-Toxic
[16]
  Activity: 5%
[17]
  Activity: Non-Toxic
[18]
  Activity: Non-Toxic
[19]
  Activity: Non-Toxic
[20]
  Activity: 34 IU/L
[21]
  Activity: 36%
[22]
  viability at 100 ug/ml: 3.1%
[23]
  viability at 25 ug/ml: 18%
[24]
  Activity: Non-Toxic
[25]
  viability at 3.125 ug/ml: 60%
[26]
  Activity: 13.6 g/dL
[27]
  Activity: Non-Toxic
[28]
  Activity: 3900 cells/mm3
[1]
  MIC: 15.1 µM
[29]
  LD50 at 336 h: 50 mg/kg
[30]
  Activity: Toxic
[31]
  Activity: 1%
[32]
  Activity: Non-Toxic
[33]
  Activity: Non-Toxic
[34]
  Activity: Non-Toxic
[35]
  Activity: Non-Toxic
[36]
  Activity: Non-Toxic
[37]
  Activity: Non-Toxic
[38]
  viability at 12.5 ug/ml: 31%
[39]
  Activity: 0.9 mg/dL
[40]
  viability at 6.25 ug/ml: 55%
[41]
  Activity: Non-Toxic
[42]
  Activity: Non-Toxic
[43]
  Activity: Non-Toxic
[44]
  Activity: Non-Toxic
[45]
  Activity: Non-Toxic
